In article PMC6345558 (European journal of medicinal chemistry, 2018):

Experiments:
MCF7 cancer cells = assay: MTT cytotoxicity, MCF7 breast cancer cells; assay type: cell-based, human; settings: for IC50: read-out: IC50 MCF7, MTT assay, 24 h incubation
MDA-MB-231 cancer cells = assay: MTT cytotoxicity, MDA-MB-231 breast cancer cells; assay type: cell-based, human; settings: read-out: IC50 MDA-MB-231; MTT assay, 24 h incubation
NIH3T3 cells = assay: MTT growth inhibition, NIH3T3 control cells; assay type: cell-based; settings: read-out: Half inhibitory growth concentration, IG50, NIH3T3, empty plasmid control, 48 h incubation at 37 °C
MRP1 = MRP1 (Homo sapiens, UniProt P33527); assay: Flow cytometry, inhibition of calcein AM efflux by MRP1; assay type: cell-based; settings: compound 20 µM, 0.2 µM calcein AM, transfected cells
Sequence of MRP1 (P33527 whole entry): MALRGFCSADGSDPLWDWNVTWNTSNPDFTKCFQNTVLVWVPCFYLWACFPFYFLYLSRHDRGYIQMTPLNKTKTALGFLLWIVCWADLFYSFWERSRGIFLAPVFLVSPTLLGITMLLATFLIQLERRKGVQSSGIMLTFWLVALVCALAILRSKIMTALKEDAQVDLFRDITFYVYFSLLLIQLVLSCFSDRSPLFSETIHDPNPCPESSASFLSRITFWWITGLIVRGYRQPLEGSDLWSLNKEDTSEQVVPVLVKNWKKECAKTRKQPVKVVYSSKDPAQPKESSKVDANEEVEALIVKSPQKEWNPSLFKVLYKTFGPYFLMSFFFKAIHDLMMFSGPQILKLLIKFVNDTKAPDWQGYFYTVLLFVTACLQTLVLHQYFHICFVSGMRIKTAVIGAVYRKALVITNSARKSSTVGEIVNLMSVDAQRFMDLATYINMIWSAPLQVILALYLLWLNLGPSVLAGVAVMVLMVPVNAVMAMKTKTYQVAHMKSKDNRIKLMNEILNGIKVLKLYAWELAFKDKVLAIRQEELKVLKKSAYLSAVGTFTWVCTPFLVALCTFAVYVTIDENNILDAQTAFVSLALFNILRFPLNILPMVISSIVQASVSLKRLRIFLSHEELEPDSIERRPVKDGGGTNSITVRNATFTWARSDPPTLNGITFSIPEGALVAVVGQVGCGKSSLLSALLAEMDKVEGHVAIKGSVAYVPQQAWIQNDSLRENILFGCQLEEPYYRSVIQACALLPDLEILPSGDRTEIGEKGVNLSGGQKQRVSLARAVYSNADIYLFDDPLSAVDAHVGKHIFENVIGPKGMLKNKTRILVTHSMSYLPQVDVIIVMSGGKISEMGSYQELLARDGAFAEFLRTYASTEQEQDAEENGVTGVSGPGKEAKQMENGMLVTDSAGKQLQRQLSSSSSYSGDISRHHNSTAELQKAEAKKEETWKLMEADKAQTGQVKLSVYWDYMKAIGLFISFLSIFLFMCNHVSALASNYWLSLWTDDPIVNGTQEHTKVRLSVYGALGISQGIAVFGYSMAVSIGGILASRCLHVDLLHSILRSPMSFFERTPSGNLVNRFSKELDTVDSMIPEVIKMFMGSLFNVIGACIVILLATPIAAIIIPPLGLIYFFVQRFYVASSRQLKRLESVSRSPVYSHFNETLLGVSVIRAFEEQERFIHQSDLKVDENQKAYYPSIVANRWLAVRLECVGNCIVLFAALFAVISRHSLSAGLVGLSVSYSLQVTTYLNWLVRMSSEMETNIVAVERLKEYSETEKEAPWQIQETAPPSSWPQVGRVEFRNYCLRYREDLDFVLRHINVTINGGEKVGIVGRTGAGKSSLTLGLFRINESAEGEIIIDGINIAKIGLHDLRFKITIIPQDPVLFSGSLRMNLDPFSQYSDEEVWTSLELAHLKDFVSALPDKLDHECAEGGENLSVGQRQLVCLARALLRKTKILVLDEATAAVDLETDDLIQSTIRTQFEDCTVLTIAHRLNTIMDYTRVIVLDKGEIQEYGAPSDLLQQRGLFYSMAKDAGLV

MRP2 = MRP2 (Homo sapiens, UniProt Q92887); assay: Flow cytometry, inhibition of calcein AM efflux by MRP2; assay type: cell-based; settings: compound 20 µM, 0.2 µM calcein AM, transfected cells
Sequence of MRP2 (Q92887 whole entry): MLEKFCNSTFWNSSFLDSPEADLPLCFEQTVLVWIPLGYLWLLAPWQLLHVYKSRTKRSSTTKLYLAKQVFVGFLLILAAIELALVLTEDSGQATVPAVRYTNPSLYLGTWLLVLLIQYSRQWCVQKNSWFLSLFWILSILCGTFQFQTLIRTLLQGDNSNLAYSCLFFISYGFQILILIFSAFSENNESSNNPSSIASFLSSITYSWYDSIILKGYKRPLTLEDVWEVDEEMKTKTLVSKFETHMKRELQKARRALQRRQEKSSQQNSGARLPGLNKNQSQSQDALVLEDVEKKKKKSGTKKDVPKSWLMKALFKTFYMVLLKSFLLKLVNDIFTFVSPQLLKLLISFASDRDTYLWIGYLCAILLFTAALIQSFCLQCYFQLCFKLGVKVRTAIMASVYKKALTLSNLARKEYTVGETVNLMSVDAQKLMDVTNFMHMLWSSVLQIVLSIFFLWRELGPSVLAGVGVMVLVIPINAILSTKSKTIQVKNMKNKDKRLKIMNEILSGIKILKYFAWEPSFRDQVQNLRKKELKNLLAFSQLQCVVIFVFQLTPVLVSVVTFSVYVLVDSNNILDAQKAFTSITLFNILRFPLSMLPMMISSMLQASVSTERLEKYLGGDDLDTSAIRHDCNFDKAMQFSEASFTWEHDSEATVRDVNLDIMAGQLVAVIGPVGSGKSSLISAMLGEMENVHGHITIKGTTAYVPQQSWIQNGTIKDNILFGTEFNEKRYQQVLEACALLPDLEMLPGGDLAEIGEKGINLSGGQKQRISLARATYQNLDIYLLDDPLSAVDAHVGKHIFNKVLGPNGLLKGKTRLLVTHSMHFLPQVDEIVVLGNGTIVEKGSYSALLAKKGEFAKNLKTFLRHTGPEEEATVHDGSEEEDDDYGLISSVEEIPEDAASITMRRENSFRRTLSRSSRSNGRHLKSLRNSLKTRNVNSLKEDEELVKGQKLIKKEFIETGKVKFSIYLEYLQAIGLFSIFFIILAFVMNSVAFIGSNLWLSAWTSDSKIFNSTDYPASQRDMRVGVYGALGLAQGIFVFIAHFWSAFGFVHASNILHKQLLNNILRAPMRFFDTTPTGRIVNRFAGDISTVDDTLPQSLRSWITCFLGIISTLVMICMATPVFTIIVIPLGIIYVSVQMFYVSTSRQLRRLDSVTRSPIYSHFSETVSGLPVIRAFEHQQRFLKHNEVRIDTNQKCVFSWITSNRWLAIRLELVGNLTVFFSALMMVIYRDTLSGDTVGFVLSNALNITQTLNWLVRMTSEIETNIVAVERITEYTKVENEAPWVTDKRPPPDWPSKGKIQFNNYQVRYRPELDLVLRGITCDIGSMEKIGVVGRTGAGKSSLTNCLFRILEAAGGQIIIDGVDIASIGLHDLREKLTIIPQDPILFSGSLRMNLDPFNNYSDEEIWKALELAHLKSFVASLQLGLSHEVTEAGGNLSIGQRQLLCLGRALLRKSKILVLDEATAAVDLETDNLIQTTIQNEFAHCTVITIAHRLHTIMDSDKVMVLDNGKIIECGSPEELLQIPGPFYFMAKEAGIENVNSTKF

[1] = system: NIH3T3 cells overexpressing P-gp; assay: MTT growth inhibition, NIH3T3 cells overexpressing P-gp
[2] = system: HEK293 cells overexpressing MRP1; assay: MTT growth inhibition, HEK293 cells overexpressing MRP1; settings: HEK293/MRP1 vs HEK293
[3] = system: HEK293 cells overexpressing BCRP; assay: MTT growth inhibition, HEK293 cells overexpressing BCRP; settings: HEK293/BCRP vs HEK293
BCRP (ABCG2) = target: T1, BCRP (ABCG2) (Homo sapiens, UniProt Q9UNQ0); assay: Flow cytometry, inhibition of mitoxantrone efflux by BCRP; settings: compound 20 µM, 5 µM mitoxantrone, transfected cells
T1 sequence (Q9UNQ0 1-655): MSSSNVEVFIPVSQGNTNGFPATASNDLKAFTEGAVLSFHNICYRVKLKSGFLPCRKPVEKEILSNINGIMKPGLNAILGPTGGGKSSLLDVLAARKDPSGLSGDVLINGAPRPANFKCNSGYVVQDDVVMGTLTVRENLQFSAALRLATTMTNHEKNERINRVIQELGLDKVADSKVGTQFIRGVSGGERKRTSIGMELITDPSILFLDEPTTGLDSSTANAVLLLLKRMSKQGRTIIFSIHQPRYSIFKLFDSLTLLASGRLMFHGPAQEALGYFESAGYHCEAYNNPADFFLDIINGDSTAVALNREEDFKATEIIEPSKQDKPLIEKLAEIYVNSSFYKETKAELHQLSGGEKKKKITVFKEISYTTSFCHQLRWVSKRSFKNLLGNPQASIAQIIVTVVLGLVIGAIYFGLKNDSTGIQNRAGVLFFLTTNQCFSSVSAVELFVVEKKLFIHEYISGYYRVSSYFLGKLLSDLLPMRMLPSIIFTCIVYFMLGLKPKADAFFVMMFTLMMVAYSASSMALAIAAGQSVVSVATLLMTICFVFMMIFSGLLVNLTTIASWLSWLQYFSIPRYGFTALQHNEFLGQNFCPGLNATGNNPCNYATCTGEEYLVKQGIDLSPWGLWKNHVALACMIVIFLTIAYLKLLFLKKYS

| SMILES | IC50 (MCF7 cancer cells) | IC50 (MDA-MB-231 cancer cells) | fold more cytotoxic than Ru2 (MCF7 cancer cells; MCF7 cancer cell line) | IC50 (NIH3T3 cells) | Inhibition of MRP1 substrate efflux (MRP1) | Inhibition of MRP2 substrate efflux (MRP2) | IG50 times higher than for non-transfected cells, P-gp ([1]; NIH3T3/P-gp vs NIH3T3) | IC50 ([1]; read-out: Half inhibitory growth concentration, IG50, P-gp, NIH3T3 overexpressing P-gp, 48 h incubation at 37 °C, MTT) | IG50 times higher than for non-transfected cells, MRP1 [2] | IG50 times higher than for non-transfected cells, BCRP [3] | Inhibition of BCRP (ABCG2) substrate efflux (BCRP (ABCG2)) |
| --- | --- | --- | --- | --- | --- | --- | --- | --- | --- | --- | --- |
| N.N.[Cl][Pt][Cl] [Cisplatin, reference compound] | 38 ± 1.41 µM | 122 ± 25 µM |  |  |  |  |  |  |  |  |  |
| O=S(=O)([O-])C(F)(F)F.OCc1ccnc(-c2cc(CO)ccn2)c1.[Ru+2].c1cc[cH-]c1.c1ccc(P(c2ccccc2)c2ccccc2)cc1 [Ru1, [Ru(η^5-Cp)(PPh3)(2,2’-bipyridine-4,4’-dimethanol)][CF3SO3]] | 4.61 ± 0.96 µM | 13.9 ± 2.8 µM | ~ 7 fold | 28 µM | did not display any inhibition property | did not display any inhibition property | 2.4 times | ~70 µM | 2 times | 2.8 times | did not display any inhibition property |
